As usually defined, the EC50 is the concentration giving half of the maximal effect. A low value points to an effect from little substance.

In experiment [1] the test system is LPS triggered IL-10 secretion in monocytes. As to the kind of experiment: Monocytes assay: LPS-triggered IL-10 (ELISA). The class given is cell-based, human. Particulars: LPS 200 ng/mL, supernatant after 4 h, maximal fold change vs LPS only. The method in brief:
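Human CD14+ monocytes, magnetically isolated from buffy-coat PBMCs, were seeded at 100 000 cells/well and preincubated with compound for 1 h at 37° C (0.2% DMSO). LPS was then added at a final 200 ng/mL for 4 h. Supernatant IL-10 was quantified by chemiluminescent sandwich ELISA against a standard curve.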
(An ELISA detects its analyte on a solid surface through an enzyme-linked reagent.)

Experiment [2] concerns LPS-induced TNFα in monocytes. As to the kind of experiment: Monocytes assay: LPS-triggered TNFα (ELISA). The format is cell-based, human. To be noted: LPS 200 ng/mL, supernatant after 4 h. The essentials:
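Human CD14+ monocytes from buffy-coat PBMCs (magnetic bead selection) were seeded at 100 000 cells/well and pretreated with compound for 1 h at 37° C (0.2% DMSO). They were then stimulated with 200 ng/mL LPS for 4 h, and supernatant TNFα was measured by chemiluminescent sandwich ELISA as percent inhibition.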

On to `COc1cc(-c2cnc3cc(OCC(O)CN4CCOCC4)ccn23)cc(OC(F)F)c1C(=O)NC1CC1` (single isomer, unassigned) [Cpd 386, N-cyclopropyl-2-(difluoromethoxy)-4-[7-(2-hydroxy-3-morpholino-propoxy)imidazo[1,2-a]pyridin-3-yl]-6-methoxy-benzamide], for which the “IL-10 FCmax median” value in experiment [1] is on record as “+++ (>4.5)”. This molecule also yielded an EC50 in experiment [2] of 100 to 1000 nM.
Take `COc1cc(-c2cnc3cc(OC[C@H]4COCCO4)ccn23)cc2c1C(=O)N(CC(F)F)CC2` [compound 219, 2-(2,2-difluoroethyl)-6-[7-[[(2R)-1,4-dioxan-2-yl]methoxy]imidazo[1,2-a]pyridin-3-yl]-8-methoxy-3,4-dihydroisoquinolin-1-one]: in experiment [1], the “IL-10 FCmax median” value is given as “+++ (>4.5)”. In experiment [2] (Homo sapiens, Monocyte, 4 h), the EC50 is 100 to 1000 nM.
For `COc1cc(-c2cnc3cc(OCc4nncn4C)ccn23)cc(OC(F)F)c1C(=O)NC1CC1` [compound 227, N-cyclopropyl-2-(difluoromethoxy)-6-methoxy-4-[7-[(4-methyl-1,2,4-triazol-3-yl)methoxy]imidazo[1,2-a]pyridin-3-yl]benzamide], in that order: “++ (>1.5-4.5)” and 1000 to 5000 nM.
For `COc1cc(-c2cnc3cc(OC[C@H]4COCCO4)ccn23)cc2c1C(=O)NCC2` [compound 242, 6-[7-[[(2R)-1,4-dioxan-2-yl]methoxy]imidazo[1,2-a]pyridin-3-yl]-8-methoxy-3,4-dihydro-2H-isoquinolin-1-one], in that order: “++ (>1.5-4.5)” and 100 to 1000 nM.
For `COc1cc(-c2cnc3cc(OCCOCCN4CCCCC4)ccn23)cc(OC(F)F)c1C(=O)NC1CC1` [compound 305], in that order: “+++ (>4.5)” and 0.1 to 100 nM.
As to `COc1cc(-c2cnc3cc(OCCCN4CC(O)C4)ccn23)cc(OC(F)F)c1C(=O)NC1CC1` [Cpd 286, N-cyclopropyl-2-(difluoromethoxy)-4-[7-[3-(3-hydroxyazetidin-1-yl)propoxy]imidazo[1,2-a]pyridin-3-yl]-6-methoxy-benzamide], the “IL-10 FCmax median” value in experiment [1] is “++ (>1.5-4.5)”. This molecule registered an EC50 in experiment [2] (Homo sapiens, Monocyte, 4 h) of 100 to 1000 nM.
In the case of `COc1cc(-c2cnc3cc(OCCCN4CCC5(CC4)CN(C)C(=O)O5)ccn23)cc(OC(F)F)c1C(=O)NC1CC1` [compound 325, N-cyclopropyl-2-(difluoromethoxy)-6-methoxy-4-[7-[3-(3-methyl-2-oxo-1-oxa-3,8-diazaspiro[4.5]decan-8-yl)propoxy]imidazo[1,2-a]pyridin-3-yl]benzamide], in experiment [1], the “IL-10 FCmax median” value is given as “++ (>1.5-4.5)”. The EC50 in experiment [2] (Homo sapiens, Monocyte, 4 h) was 0.1 to 100 nM.
As for `COc1cc(-c2cnc3cc(OCCN4CCN(C)CC4)ccn23)cc(OC(F)F)c1C(=O)NC1CC1` [compound 9, N-cyclopropyl-2-(difluoromethoxy)-6-methoxy-4-[7-[2-(4-methylpiperazin-1-yl)ethoxy]imidazo[1,2-a]pyridin-3-yl]benzamide], the “IL-10 FCmax median” value in experiment [1] is “+++ (>4.5)”. The same molecule registered an EC50 in experiment [2] (Homo sapiens, Monocyte, 4 h) of 0.1 to 100 nM.
For `COc1cc(-c2cnc3cc(OCCCN4CCC4)ccn23)cc(OC(F)F)c1C(=O)NC1CC1` [compound 274, 4-[7-[3-(azetidin-1-yl)propoxy]imidazo[1,2-a]pyridin-3-yl]-N-cyclopropyl-2-(difluoromethoxy)-6-methoxy-benzamide], in that order: “++ (>1.5-4.5)” and 100 to 1000 nM.
For `CCOC(=O)C1(F)CCN(CC(O)COc2ccn3c(-c4cc(OC)c(C(=O)NC5CC5)c(OC(F)F)c4)cnc3c2)CC1` (stereo not drawn) [compound 384, ethyl 1-[3-[3-[4-(cyclopropylcarbamoyl)-3-(difluoromethoxy)-5-methoxy-phenyl]imidazo[1,2-a]pyridin-7-yl]oxy-2-hydroxy-propyl]-4-fluoro-piperidine-4-carboxylate], in that order: “++ (>1.5-4.5)” and 0.1 to 100 nM.
For `COc1cc(-c2cnc3cc(OCCN4CCN(C(C)C)CC4)ccn23)cc(OC(F)F)c1C(=O)NC1CC1` [compound 276, N-cyclopropyl-2-(difluoromethoxy)-4-[7-[2-(4-isopropylpiperazin-1-yl)ethoxy]imidazo[1,2-a]pyridin-3-yl]-6-methoxy-benzamide], in that order: “++ (>1.5-4.5)” and 100 to 1000 nM.
Take `COc1cc(-c2cnc3cc(OCC(O)CN4CCOCC4)ccn23)cc(OC(F)F)c1C(=O)NC1CC1` (single isomer, unassigned) [Cpd 387, N-cyclopropyl-2-(difluoromethoxy)-4-[7-(2-hydroxy-3-morpholino-propoxy)imidazo[1,2-a]pyridin-3-yl]-6-methoxy-benzamide]: the “IL-10 FCmax median” value in experiment [1] is “+++ (>4.5)”. In experiment [2], this molecule showed a concentration for a half-maximal effect (EC50) of 0.1 to 100 nM.
In the case of `CCOC(=O)C1(F)CCN(CCOc2ccn3c(-c4cc(OC)c(C(=O)NC5CC5)c(OC(F)F)c4)cnc3c2)CC1` [compound 390, ethyl 1-[2-[3-[4-(cyclopropylcarbamoyl)-3-(difluoromethoxy)-5-methoxy-phenyl]imidazo[1,2-a]pyridin-7-yl]oxyethyl]-4-fluoro-piperidine-4-carboxylate], the “IL-10 FCmax median” value in experiment [1] is on record as “+++ (>4.5)”. Moreover, the EC50 in experiment [2] (Homo sapiens, Monocyte, 4 h) lay within 0.1 to 100 nM.
For `COc1cc(-c2cnc3cc(OCCN4CC(F)(F)C4)ccn23)cc2c1C(=O)N(CC(F)(F)F)CC2` [Cpd 244, 6-[7-[2-(3,3-difluoroazetidin-1-yl)ethoxy]imidazo[1,2-a]pyridin-3-yl]-8-methoxy-2-(2,2,2-trifluoroethyl)-3,4-dihydroisoquinolin-1-one], in that order: “+++ (>4.5)” and 100 to 1000 nM.
Regarding `COc1cc(-c2cnc3cc(OCCCN4CCC5(CC4)CNC(=O)O5)ccn23)cc(OC(F)F)c1C(=O)NC1CC1` [Cpd 324, N-cyclopropyl-2-(difluoromethoxy)-6-methoxy-4-[7-[3-(2-oxo-1-oxa-3,8-diazaspiro[4.5]decan-8-yl)propoxy]imidazo[1,2-a]pyridin-3-yl]benzamide], the “IL-10 FCmax median” value in experiment [1] was “++ (>1.5-4.5)”. Moreover, the EC50 in experiment [2] (Homo sapiens, Monocyte, 4 h) is 100 to 1000 nM.
For `COc1cc(-c2cnc3cc(OCCCN4CCCC4)ccn23)cc(OC(F)F)c1C(=O)NC1CC1` [compound 275, N-cyclopropyl-2-(difluoromethoxy)-6-methoxy-4-[7-(3-pyrrolidin-1-ylpropoxy)imidazo[1,2-a]pyridin-3-yl]benzamide], in that order: “+++ (>4.5)” and 100 to 1000 nM.
For `CCOC(=O)C1(F)CCN(CCCOc2ccn3c(-c4cc(OC)c(C(=O)NC5CC5)c(OC(F)F)c4)cnc3c2)CC1` [Cpd 363, ethyl 1-[3-[3-[4-(cyclopropylcarbamoyl)-3-(difluoromethoxy)-5-methoxy-phenyl]imidazo[1,2-a]pyridin-7-yl]oxypropyl]-4-fluoro-piperidine-4-carboxylate], in that order: “+++ (>4.5)” and 0.1 to 100 nM.
Regarding `COc1cc(-c2cnc3cc(OCCN4CCOC[C@@H]4C)ccn23)cc(OC(F)F)c1C(=O)NC1CC1` [compound 233, N-cyclopropyl-2-(difluoromethoxy)-6-methoxy-4-[7-[2-[(3S)-3-methylmorpholin-4-yl]ethoxy]imidazo[1,2-a]pyridin-3-yl]benzamide], the “IL-10 FCmax median” value in experiment [1] is listed as “+++ (>4.5)”. Moreover, the EC50 in experiment [2] (Homo sapiens, Monocyte, 4 h) is 100 to 1000 nM.
As for `COc1cc(-c2cnc3cc(OCCN4C5CCC4COC5)ccn23)cc(OC(F)F)c1C(=O)NC1CC1` [compound 193, N-cyclopropyl-2-(difluoromethoxy)-6-methoxy-4-[7-[2-(3-oxa-8-azabicyclo [3.2.1]octan-8-yl)ethoxy]imidazo[1,2-a]pyridin-3-yl]benzamide], in experiment [1], the “IL-10 FCmax median” value is “+++ (>4.5)”. In addition, the EC50 in experiment [2] (Homo sapiens, Monocyte) was in the range of 0.1 to 100 nM.
For the molecule `COc1cc(-c2cnc3cc(OCCCN4CCNCC4)ccn23)cc(OC(F)F)c1C(=O)NC1CC1` [compound 278, N-cyclopropyl-2-(difluoromethoxy)-6-methoxy-4-[7-(3-piperazin-1-ylpropoxy)imidazo[1,2-a]pyridin-3-yl]benzamide], the “IL-10 FCmax median” value in experiment [1] is given as “++ (>1.5-4.5)”. Moreover, in experiment [2] (Homo sapiens, Monocyte, 4 h), the EC50 fell in the range of 100 to 1000 nM.
For `COc1cc(-c2cnc3cc(OCC(O)CN4CCOCC4)ccn23)cc(OC(F)F)c1C(=O)NC1CC1` (stereo not drawn) [Cpd 330, N-cyclopropyl-2-(difluoromethoxy)-4-[7-(2-hydroxy-3-morpholino-propoxy)imidazo[1,2-a]pyridin-3-yl]-6-methoxy-benzamide], in that order: “+++ (>4.5)” and 100 to 1000 nM.
For `COc1cc(-c2cnc3cc(OCCCN4CCS(=O)(=O)CC4)ccn23)cc(OC(F)F)c1C(=O)NC1CC1` [Cpd 331, N-cyclopropyl-2-(difluoromethoxy)-4-[7-[3-(1,1-dioxo-1,4-thiazinan-4-yl)propoxy]imidazo[1,2-a]pyridin-3-yl]-6-methoxy-benzamide], in that order: “+++ (>4.5)” and 0.1 to 100 nM.
For `COc1cc(-c2cnc3cc(OCCN4CCOC[C@H]4C)ccn23)cc(OC(F)F)c1C(=O)NC1CC1` [compound 234, N-cyclopropyl-2-(difluoromethoxy)-6-methoxy-4-[7-[2-[(3R)-3-methylmorpholin-4-yl]ethoxy]imidazo[1,2-a]pyridin-3-yl]benzamide], in that order: “+++ (>4.5)” and 100 to 1000 nM.
In the case of `COc1cc(-c2cnc3cc(OCC4(F)CN(C(=O)OC(C)(C)C)C4)ccn23)cc2c1C(=O)N(CC(F)(F)F)CC2` [compound 248, tert-butyl 3-fluoro-3-[[3-[8-methoxy-1-oxo-2-(2,2,2-trifluoroethyl)-3,4-dihydroisoquinolin-6-yl]imidazo[1,2-a]pyridin-7-yl]oxymethyl]azetidine-1-carboxylate], the “IL-10 FCmax median” value in experiment [1] is recorded as “+++ (>4.5)”. The EC50 in experiment [2] (Homo sapiens, Monocyte, 4 h) lay in the range of 100 to 1000 nM.

Source of the values: patent US12264156B2, “Compounds and pharmaceutical compositions thereof for the treatment of diseases” (GALAPAGOS NV, priority 2018, dated 2025).
